Test results: patent US20050175688A1 (priority 2004, published 2005)

Tests used:
[1] = Solubility in water; assay type: physicochemical
[2] = tested on: chronic pelvic pain/endometriosis; assay: Potaba protocol study: oral Potaba in women with chronic pelvic pain/endometriosis; assay type: in vivo
Method: The total number of women under clinical examination was 212.
All of those who volunteered for the therapy protocol met the criteria of 10 points or more on the self-test, that threshold defining a subject who was at risk for endometriosis.
A pelvic pain assessment which was originated by the International Pelvic Pain Society© 1999 (IPPS) was also conducted. IPPS evaluated the volunteer subjects for the following information: pain, menses, bladder, bowel habits, gastro-intestinal/eating habits, health habits, coping mechanisms, a short form McGill questionnaire (psychological; level of depression assay), daily activities, personal history, surgical history, sexual history and physical history.
In addition to a careful review of the pre-test examinations of the prospective subjects, exclusion criteria were also established as a means of reducing unrelated influences into the test results.
Only one physician conducted the physical evaluation of each of the participants to ensure consistency throughout the study. In addition to repeated laboratory and thorough physical examinations, the examining physician personally discussed and recorded responses to questions about the presence or absence of side-effects and improvements in symptoms, if any. […] Although the subjects individual responses to questions regarding symptoms and particularly levels of pain experience throughout the test period inherently can include a subjective element, the questions were repetitiously and precisely posed to the subjects so as to prompt a consistent response minimally effected by the questioner's choice of words, tone, delivery, etc. The test subjects reported pelvic pain experience as a number selected between the levels of 1 to 10, with 1 being no pain experienced and 10 being the most severe level of pain.

[3] = 12 grams/day po, out of 25 participants

## Nc1ccc(C(=O)O)cc1 [Potaba, aminobenzoate potassium]
[1]
  solubility in water: highly soluble in water
[2]; [3]
  Discontinued Potaba protocol (reason): nausea, No. of Study Participants: 3
  Discontinued Potaba protocol (reason): rash, No. of Study Participants: 2
[2]; oral administration
  incidence of drug interactions: low incidence of drug interactions
[2]; oral administration, potassium
  toxicity / safety of oral administration (result in words): non-toxic and safe
